# Non-standard residues stand in square brackets, D forms with d. Residues, ends and D or L forms follow the SMILES beside them. *: point of attachment. Palmitoyl = CCCCCCCCCCCCCCCC(=O)*
# Legend:
# Assay type in all cases: cell-based
# E. coli D21 = settings: D21, pH 7.4
# M. laleus = settings: Table 3, short lipopeptides; pH 7.4
# Method in brief: (§1)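 MIC = lowest concentration with 100% growth inhibition, judged from A600 after 18-20 h incubation at 37° C. Bacteria at 1×10^6 CFU/ml in LB (pH 7.4 unless pH 5.5 stated) combined with equal volume of serially 2-fold diluted lipopeptide.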
# [1] = test system: Pseudomonas aeruginosa ATCC 27853; settings: ATCC 27853, pH 7.4
# Method in brief: as §1
# [2] = test system: Staphylococcus aureus ATCC 6538P; settings: ATCC 6538, pH 7.4
# Method in brief: as §1
# [3] = test system: Candida albicans ATCC 10231; assay: microbe, parasite or virus in culture; settings: ATCC 10231, pH 7.4; for MIC: read-out: Minimal Inhibitory Concentration, Candida Albicans (ATCC 10231)
# Method in brief: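 In this assay, each strain, prepared at 1×10^4 CFU/ml before mixing, met serial twofold peptide dilutions in RPMI 1640 buffered with 0.165 M MOPS. Unless noted, pH was 7.4; a pH 5.5 condition was also run. After 24-48 h incubation (35 °C, agitated), wells were scored at 620 nm for total inhibition.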
# [4] = test system: Cryptococcus neoformans ATCC MYA-422; assay: microbe, parasite or virus in culture; settings: ATCC MYA-422, pH 7.4; for MIC: read-out: Minimal Inhibitory Concentration, Cyrptococcus neoformans (ATCC MYA-422)
# [5] = test system: Aspergillus fumigatus ATCC 26430; assay: microbe, parasite or virus in culture; settings: ATCC 26430, pH 7.4; for MIC: read-out: Minimal Inhibitory Concentration, Aspergillus Fomigatus (ATCC 26430)
# E. aerogenes ATCC 35029 = settings: ATCC 35029, pH 7.4
# Method in brief: as §1
# E. coli ATCC 35218 = settings: ATCC 35218, pH 7.4
# Method in brief: as §1
# [6] = Cytotoxicity, XTT viability, non-cancer cells; settings: mouse, non-cancer cell line, 24 h incubation, read-out: LC50, 3T3
# Experimental: Prostate cancer cell lines (CL1 and 22RV1; ATCC, USA) were grown in RPMI-1640 supplemented with 10% FCS (Biological Industries, Beit Haemek, Israel). N1H-3T3 mouse fibroblast cell line (ATCC, USA) was grown in DMEM supplemented with 10% bovine serum. To test cytotoxicity against the cancer cells, aliquots of medium containing 1×10^4 cells were distributed into a 96-well plate (Falcon). After one day, the media were replaced with 90 μl of fresh media and 10 μl of a solution containing different concentrations of the peptides. The plate was then incubated for 24 h before adding to each well 50 μl of XTT reaction solution (Biological Industries, Beit Haemek, Israel); viability was determined as previously described (Papo et al., (2003) J. Biol. Chem. 278:21018-23). The LC50 (concentration at which 50% of the cells die) for each peptide was obtained from the dose-dependent cell viability curves.
Compound,"Minimal Inhibitory Concentration, E. coli-D21 (E. coli D21) [µM]","Minimal Inhibitory Concentration, M. laleus (M. laleus) [µM]","Minimal Inhibitory Concentration, P. aeruginosa ATCC 27853 [1] [µM]","Minimal Inhibitory Concentration, S. aureus ATCC 6538P [2] [µM]",MIC [3] [µM],MIC [4] [µM],MIC [5] [µM],"Minimal Inhibitory Concentration, E. aerogenes ATCC 35029 (E. aerogenes ATCC 35029) [µM]","Minimal Inhibitory Concentration, E. coli ATCC 35218 (E. coli ATCC 35218) [µM]","Minimal Inhibitory Concentration, C. albicans ATCC 10231 [3] [µM]","Minimal Inhibitory Concentration, C. neoformans ATCC MYA-422 [4] [µM]","Minimal Inhibitory Concentration, A. fumigatus ATCC 26430 [5] [µM]",CC50 at 24 h [6] [µM]
"CCCCCCCCCCCCCCCC(=O)N[C@@H](CCCCN)C(=O)NCC(=O)NCC(=O)N[C@H](CCCCN)C(N)=O [PA-KGGK, Palmitoyl-Lys-Gly-Gly-D-Lys-NH2] (Palmitoyl-KGG[dK]-NH2)",25,3.12,12.5,50,12.5,1.56,6.25,,,,,,
"CCCCCCCCCCCCCCCC(=O)N[C@@H](CCCCN)C(=O)N[C@@H](CC(C)C)C(=O)N[C@H](CC(C)C)C(=O)N[C@@H](CCCCN)C(N)=O [PA-KLLK, Palmitoyl-Lys-Leu-D-Leu-Lys-NH2] (Palmitoyl-KL[dL]K-NH2)",100,3.12,100,3.12,6.25,1.56,3.125,,,,,,
"CC(C)C[C@@H](N)C(=O)N[C@@H](CCCCN)C(=O)N[C@@H](CCCCN)C(=O)N[C@H](CC(C)C)C(=O)N[C@H](CC(C)C)C(=O)N[C@@H](CCCCN)C(=O)N[C@@H](CCCCN)C(=O)N[C@H](CC(C)C)C(=O)N[C@H](CC(C)C)C(=O)N[C@@H](CCCCN)C(=O)N[C@@H](CCCCN)C(=O)N[C@H](CC(C)C)C(N)=O [[D]-L6K6, LKKLLKKLLKKL, reference compound] (H-[dL]KK[dL][dL]KK[dL][dL]KK[dL]-NH2; N-terminus assumed)",,,>50,>50,,,,>50,50,>50,>50,>50,> 100
